In one experiment the test system is lung cancer. The following applies: cited from earlier work.
The next experiment concerns MCF7 cells. The settings on record: BRCA1 protein downregulation, premature inactivation of the spindle checkpoint; cited from earlier work.
Another experiment concerns ovarian cancer. The settings on record: cited from earlier work.
For the next experiment, the system named is tumor cell lines. The following applies: BRCA1 protein reconstituted into the tumor cell lines; cited from earlier work.
The next experiment has as its system breast cancer. The settings on record: cited from earlier work.
Experiment [1] concerns breast cancer in non-carriers. The experiment is described as follows: Response to neoadjuvant chemotherapy in matched non-carrier breast cancer patients. Type of experiment: in vivo, human. The procedure: (§1) 3479 unselected incident cases of invasive breast cancer were identified at 18 different hospitals in Poland during the study period. The medical records and pathology reports were reviewed locally at the study centre in Szczecin. Information was recorded on age at diagnosis, stage, grade and lymph-node status, estrogen-receptor status, multi-centricity and bilaterality. Pathology review of tumor blocks and/or paraffin-embedded slides were requested from the corresponding pathology centres. One or more specimens were obtained from 3136 of the […] patients. A central pathology review was conducted in Szczecin by two pathologists associated with the study. Pathologists were blinded to mutation status. […] Pre-treatment tumor size was determined in all patients by a combination of clinical examination and mammography (for some patients ultrasound examinations were also performed). Post-treatment size was determined by pathology report. Lymph node status was evaluated prior to and after treatment. Pre-treatment lymph node status was evaluated with a combination of clinical exam, ultrasound and fine needle aspiration. After treatment all patients underwent axillary dissection and node status was evaluated by pathology report. […] The statistical significance of group differences was assessed using Fisher's Exact Test. […]

Experiment [2] has as its system breast cancer in BRCA1 mutation carriers. The experiment is described as follows: Response to neoadjuvant chemotherapy in breast cancer patients carrying a BRCA1 mutation. It counts as in vivo, human. The procedure:
as §1

Regarding `CC(=O)O[C@H]1C(=O)[C@@]2(C)[C@H]([C@H](OC(=O)c3ccccc3)[C@]3(O)C[C@H](OC(=O)[C@H](O)[C@@H](NC(=O)c4ccccc4)c4ccccc4)C(C)=C1C3(C)C)[C@]1(OC(C)=O)CO[C@@H]1C[C@@H]2O` [paclitaxel], the effectivity in the experiment with lung cancer is roughly 20%; in the experiment on ovarian cancer it was “around 30%”; in the experiment on breast cancer it was roughly 50%. In addition, the sensitivity to paclitaxel result in the experiment on MCF7 cells is “insensitive”; in the experiment on tumor cell lines it was “increased”.
As to `CC(=O)O[C@@]12CO[C@@H]1C[C@H](O)[C@@]1(C)C(=O)[C@H](O)C3=C(C)[C@@H](OC(=O)[C@H](O)[C@@H](NC(=O)OC(C)(C)C)c4ccccc4)C[C@@](O)([C@@H](OC(=O)c4ccccc4)[C@H]21)C3(C)C` [docetaxel], the “patients with complete or partial response, of patients treated” value is reported as 12 of 12 in experiment [1] (non-carriers) and 6 of the 15 in experiment [2]. Also, the patients who responded in experiment [1] (non-carriers with ER-negative tumors) is reported as 4.

The record behind these values is patent US20080241834A1, “Method for improving neoadjuvant chemotherapy” (priority 2006, published 2008).
